Laboratory results taken from the NIST ThermoML archive (doi:10.1016/j.jct.2004.11.013).
Numbers after ± are expanded uncertainties.

What was measured:
[1] = φn = volume fraction of the nth substance listed; conditions: 303.15 K, 101.33 kPa, Liquid, Linear variable-path acoustic interferometer
[2] = xn = mol fraction of the nth substance listed; conditions: 303.15 K, 101.33 kPa, Liquid, Direct dilatometry
[3] = Liquid; for speed of sound / mass density: 303.15 K, 101.33 kPa; for speed of sound: Linear variable-path acoustic interferometer; for mass density: Pycnometric method

`ClC=C(Cl)Cl` [trichloroethene] + BrCCBr gave a speed of sound ([1]; φ2 = 0) of 1013.7 ± 3.5 m/s, a speed of sound ([1]; φ2 = 0.0922) of 1000.5 ± 3.4 m/s and a speed of sound ([1]; φ2 = 0.2012) of 990.5 ± 3.4 m/s. The speed of sound ([1]; φ2 = 0.2951) was 982.5 ± 3.4 m/s, the speed of sound ([1]; φ2 = 0.4462) was 973.5 ± 3.4 m/s and the speed of sound ([1]; φ2 = 0.54) was 971.2 ± 3.3 m/s. The speed of sound ([1]; φ2 = 0.6986) was 968.2 ± 3.3 m/s, the speed of sound ([1]; φ2 = 0.7836) was 972.4 ± 3.4 m/s and the speed of sound ([1]; φ2 = 0.8885) was 975.9 ± 3.4 m/s. It also gave an excess molar volume ([2]; x2 = 0.0956) of 6.3e-08 ± 6e-09 m3/mol, an excess molar volume ([2]; x2 = 0.2077) of 1.29e-07 ± 6e-09 m3/mol and an excess molar volume ([2]; x2 = 0.3035) of 1.74e-07 ± 6e-09 m3/mol. It also gave an excess molar volume ([2]; x2 = 0.4561) of 2.09e-07 ± 6e-09 m3/mol, an excess molar volume ([2]; x2 = 0.5499) of 2.08e-07 ± 6e-09 m3/mol and an excess molar volume ([2]; x2 = 0.7069) of 1.64e-07 ± 6e-09 m3/mol. It also gave an excess molar volume ([2]; x2 = 0.7903) of 1.25e-07 ± 6e-09 m3/mol and an excess molar volume ([2]; x2 = 0.8924) of 6.4e-08 ± 6e-09 m3/mol.

Work on `ClC(Cl)C(Cl)Cl` [1,1,2,2-tetrachloroethane] yielded a speed of sound [3] of 1133.1 ± 3.5 m/s, a mass density [3] of 1578.57 ± 2.7 kg/m3 and a Normal boiling temperature [3] of 146.10 ± 0.21 °C.

In the case of `ClCCCl` [1,2-dichloroethane], the speed of sound [3] is reported as 1173.3 ± 3.6 m/s, the mass density [3] is reported as 1238.28 ± 2.2 kg/m3 and the Normal boiling temperature [3] is reported as 83.6 ± 0.21 °C.

Work on `BrCCBr` [1,2-dibromoethane] + CC(Cl)(Cl)Cl yielded a speed of sound ([1]; φ1 = 1) of 984 ± 3.4 m/s.

`BrCCBr` [1,2-dibromoethane] + ClCCCl gave a speed of sound ([1]; φ1 = 0.1012) of 1149.2 ± 3.6 m/s, a speed of sound ([1]; φ1 = 0.1885) of 1125 ± 3.6 m/s and a speed of sound ([1]; φ1 = 0.2842) of 1101.8 ± 3.6 m/s. The speed of sound ([1]; φ1 = 0.3697) was 1079.6 ± 3.5 m/s, the speed of sound ([1]; φ1 = 0.5106) was 1047.3 ± 3.5 m/s and the speed of sound ([1]; φ1 = 0.6049) was 1029.8 ± 3.4 m/s. It also gave a speed of sound ([1]; φ1 = 0.7908) of 1001.3 ± 3.3 m/s, a speed of sound ([1]; φ1 = 0.8724) of 993 ± 3.3 m/s and a speed of sound ([1]; φ1 = 1) of 984 ± 3.2 m/s. The excess molar volume ([2]; x1 = 0.0938) was 1.7e-08 ± 6e-09 m3/mol, the excess molar volume ([2]; x1 = 0.1759) was 3e-08 ± 6e-09 m3/mol and the excess molar volume ([2]; x1 = 0.2673) was 4.2e-08 ± 6e-09 m3/mol. It also gave an excess molar volume ([2]; x1 = 0.3502) of 4.7e-08 ± 6e-09 m3/mol, an excess molar volume ([2]; x1 = 0.4894) of 5.2e-08 ± 6e-09 m3/mol and an excess molar volume ([2]; x1 = 0.5845) of 5.1e-08 ± 6e-09 m3/mol. It also gave an excess molar volume ([2]; x1 = 0.7764) of 3.5e-08 ± 6e-09 m3/mol and an excess molar volume ([2]; x1 = 0.8626) of 2.5e-08 ± 6e-09 m3/mol.

Molecule `ClC(Cl)=C(Cl)Cl` [tetrachloroethene] + BrCCBr has a speed of sound ([1]; φ2 = 0) of 1027.8 ± 3.5 m/s.

Molecule `CC(Cl)(Cl)Cl` [1,1,1-trichloroethane] + BrCCBr has a speed of sound ([1]; φ2 = 0) of 943.2 ± 3.3 m/s, a speed of sound ([1]; φ2 = 0.0787) of 942.1 ± 3.3 m/s and a speed of sound ([1]; φ2 = 0.1718) of 942.1 ± 3.3 m/s. The speed of sound ([1]; φ2 = 0.2457) was 944.6 ± 3.3 m/s, the speed of sound ([1]; φ2 = 0.3811) was 950.4 ± 3.4 m/s and the speed of sound ([1]; φ2 = 0.4866) was 958.1 ± 3.4 m/s. For the same molecule, the speed of sound ([1]; φ2 = 0.595) was 961 ± 3.3 m/s, the speed of sound ([1]; φ2 = 0.6486) was 965.1 ± 3.4 m/s and the speed of sound ([1]; φ2 = 0.8532) was 973.6 ± 3.4 m/s. For the same molecule, the excess molar volume ([2]; x2 = 0.0902) was -7.3e-08 ± 6e-09 m3/mol, the excess molar volume ([2]; x2 = 0.1941) was -1.2e-07 ± 6e-09 m3/mol and the excess molar volume ([2]; x2 = 0.2744) was -1.33e-07 ± 6e-09 m3/mol. It also gave an excess molar volume ([2]; x2 = 0.4169) of -1.11e-07 ± 6e-09 m3/mol, an excess molar volume ([2]; x2 = 0.5239) of -6.4e-08 ± 6e-09 m3/mol and an excess molar volume ([2]; x2 = 0.6304) of -6e-09 ± 6e-09 m3/mol. For the same molecule, the excess molar volume ([2]; x2 = 0.6818) was 2.1e-08 ± 6e-09 m3/mol and the excess molar volume ([2]; x2 = 0.8709) was 6.9e-08 ± 6e-09 m3/mol.

`BrCCBr` [1,2-dibromoethane] + ClC=C(Cl)Cl gave a speed of sound ([1]; φ1 = 1) of 984 ± 3.4 m/s.

Molecule `ClC=C(Cl)Cl` [trichloroethene] has a speed of sound [3] of 1013.7 ± 3.5 m/s, a mass density [3] of 1451.34 ± 2.5 kg/m3 and a Normal boiling temperature [3] of 87.2 ± 0.21 °C.

`ClC(Cl)C(Cl)Cl` [1,1,2,2-tetrachloroethane] + BrCCBr showed a speed of sound ([1]; φ2 = 0) of 1133.1 ± 3.5 m/s.

`ClC(Cl)=C(Cl)Cl` [tetrachloroethene] showed a speed of sound [3] of 1027.8 ± 3.5 m/s, a mass density [3] of 1606.36 ± 2.7 kg/m3 and a Normal boiling temperature [3] of 121.30 ± 0.21 °C.

In the case of `BrCCBr` [1,2-dibromoethane] + ClC(Cl)C(Cl)Cl, the speed of sound ([1]; φ1 = 0.0736) is reported as 1123.4 ± 3.5 m/s, the speed of sound ([1]; φ1 = 0.1308) is reported as 1112.7 ± 3.5 m/s and the speed of sound ([1]; φ1 = 0.2625) is reported as 1092.9 ± 3.5 m/s. For the same molecule, the speed of sound ([1]; φ1 = 0.3958) was 1069.6 ± 3.5 m/s, the speed of sound ([1]; φ1 = 0.4864) was 1054.5 ± 3.5 m/s and the speed of sound ([1]; φ1 = 0.6302) was 1031.7 ± 3.5 m/s. It also gave a speed of sound ([1]; φ1 = 0.7156) of 1019.7 ± 3.5 m/s, a speed of sound ([1]; φ1 = 0.895) of 995 ± 3.4 m/s and a speed of sound ([1]; φ1 = 1) of 984 ± 3.4 m/s. It also gave an excess molar volume ([2]; x1 = 0.0885) of -5.2e-08 ± 6e-09 m3/mol, an excess molar volume ([2]; x1 = 0.1554) of -9e-08 ± 6e-09 m3/mol and an excess molar volume ([2]; x1 = 0.3032) of -1.56e-07 ± 6e-09 m3/mol. The excess molar volume ([2]; x1 = 0.4447) was -1.71e-07 ± 6e-09 m3/mol, the excess molar volume ([2]; x1 = 0.5365) was -1.56e-07 ± 6e-09 m3/mol and the excess molar volume ([2]; x1 = 0.6757) was -9.8e-08 ± 6e-09 m3/mol. For the same molecule, the excess molar volume ([2]; x1 = 0.7546) was -5.9e-08 ± 6e-09 m3/mol and the excess molar volume ([2]; x1 = 0.9124) was -3e-09 ± 6e-09 m3/mol.

Molecule `ClCCCl` [1,2-dichloroethane] + BrCCBr has a speed of sound ([1]; φ2 = 0) of 1173.3 ± 3.6 m/s.

`CC(Cl)(Cl)Cl` [1,1,1-trichloroethane] gave a speed of sound [3] of 943.2 ± 3.3 m/s, a mass density [3] of 1320.92 ± 2.3 kg/m3 and a Normal boiling temperature [3] of 74 ± 0.21 °C.

In the case of `BrCCBr` [1,2-dibromoethane], the speed of sound [3] is reported as 984 ± 3.2 m/s, the mass density [3] is reported as 2159.67 ± 3.5 kg/m3 and the Normal boiling temperature [3] is reported as 131.50 ± 0.21 °C.

Work on `BrCCBr` [1,2-dibromoethane] + ClC(Cl)=C(Cl)Cl yielded a speed of sound ([1]; φ1 = 0.0955) of 1010.1 ± 3.5 m/s, a speed of sound ([1]; φ1 = 0.2327) of 992.8 ± 3.4 m/s and a speed of sound ([1]; φ1 = 0.321) of 985.8 ± 3.4 m/s. The speed of sound ([1]; φ1 = 0.4381) was 980.4 ± 3.4 m/s, the speed of sound ([1]; φ1 = 0.5881) was 975.3 ± 3.3 m/s and the speed of sound ([1]; φ1 = 0.6802) was 975.1 ± 3.3 m/s. It also gave a speed of sound ([1]; φ1 = 0.7639) of 973.7 ± 3.3 m/s, a speed of sound ([1]; φ1 = 0.8904) of 978.1 ± 3.4 m/s and a speed of sound ([1]; φ1 = 1) of 984 ± 3.4 m/s. It also gave an excess molar volume ([2]; x1 = 0.1133) of 3e-07 ± 6e-09 m3/mol, an excess molar volume ([2]; x1 = 0.2647) of 4.61e-07 ± 7e-09 m3/mol and an excess molar volume ([2]; x1 = 0.3594) of 4.72e-07 ± 7e-09 m3/mol. For the same molecule, the excess molar volume ([2]; x1 = 0.4806) was 4.4e-07 ± 6e-09 m3/mol, the excess molar volume ([2]; x1 = 0.6289) was 3.66e-07 ± 6e-09 m3/mol and the excess molar volume ([2]; x1 = 0.7163) was 3.1e-07 ± 6e-09 m3/mol. For the same molecule, the excess molar volume ([2]; x1 = 0.7934) was 2.55e-07 ± 6e-09 m3/mol and the excess molar volume ([2]; x1 = 0.906) was 1.43e-07 ± 6e-09 m3/mol.
